The source of these data is KR20100108793A, “애기뿔소똥구리로부터 분리된 항진균 활성을 가지는 코프리신 펩타이드 및 그의 용도” (대한민국(농촌진흥청장), priority 2009, dated 2010).

Converted amounts (≈) assume the structure as drawn. Where no end group is shown, it is not given here.

Common to all, as to type: cell-based
One data set deals with Aspergillus flavus. In words: Antifungal MIC by MTT assay. Particulars: 28℃, 24 h, MTT readout at 570 nm.
For a further data set, the system named is Aspergillus fumigatus. Nature of the data set: Antifungal MIC by MTT assay. To be noted: 28℃, 24 h, MTT readout at 570 nm.
A further data set has as its system Aspergillus parasticus. In words: Antifungal MIC by MTT assay. Particulars: 28℃, 24 h, MTT readout at 570 nm.
Data set [1] concerns Candida albicans (TIMM 1768). In words: Antifungal MIC by MTT assay. Particulars: strain TIMM 1768; 28℃, 24 h, MTT readout at 570 nm.
Data set [2] deals with Candida albicans (ATCC 90028). Nature of the data set: Antifungal MIC by MTT assay. To be noted: strain ATCC 90028; 28℃, 24 h, MTT readout at 570 nm.
The test system of the next data set is Candida parapsilosis. Nature of the data set: Antifungal MIC by MTT assay. To be noted: 28℃, 24 h, MTT readout at 570 nm.
The next data set deals with Malassezia furfur. In words: Antifungal MIC by MTT assay. To be noted: 28℃, 24 h, MTT readout at 570 nm.
The subject of the next data set is Trichosporon beigelii. Nature of the data set: Antifungal MIC by MTT assay. Particulars: 28℃, 24 h, MTT readout at 570 nm.
The next data set concerns Trichophyton rubrum. Nature of the data set: Antifungal MIC by MTT assay. Particulars: 28℃, 24 h, MTT readout at 570 nm.
Data set [3] concerns Candida albicans. Nature of the data set: Mechanism of antifungal activity (time-kill, CFU count; cidal or static). To be noted: plated over time on YPD agar, 28℃, 24 h, CFU count (Fig. 2).
In a further data set the test system is Human erythrocytes. In words: Cytotoxicity to human erythrocytes (hemolysis). To be noted: for % human erythrocyte hemolysis: 37℃, 90 min, 0.1% Triton X-100 = 100 %; for Cytotoxicity to human erythrocytes (in words): summary of Table 3.
For data set [4], the system named is Candida albicans. Nature of the data set: Activity on dimorphism (FBS-induced hyphae) of pathogenic fungus, microscopy. Particulars: hyphae induced with 20% FBS; 37℃, 24 h; microscopy (Fig. 1).

On to `CC[C@H](C)[C@H](NC(=O)CN)C(=O)NCC(=O)N[C@@H](C)C(=O)N[C@H](C(=O)N[C@@H](CC(C)C)C(=O)N[C@@H](CCCCN)C(=O)N[C@H](C(=O)N[C@@H](CC(C)C)C(=O)N[C@H](C(=O)N[C@H](C(=O)NCC(=O)N[C@@H](CC(C)C)C(=O)N1CCC[C@H]1C(=O)N[C@@H](C)C(=O)N[C@@H](CC(C)C)C(=O)N[C@H](C(=O)N[C@@H](CO)C(=O)N[C@@H](Cc1c[nH]c2ccccc12)C(=O)N[C@H](C(=O)N[C@@H](CCCCN)C(=O)N[C@@H](CCCNC(=N)N)C(=O)N[C@@H](CCCCN)C(=O)N[C@@H](CCCNC(=N)N)C(=O)N[C@@H](CCC(N)=O)C(=O)N[C@@H](CCC(N)=O)C(N)=O)[C@@H](C)CC)[C@@H](C)CC)[C@@H](C)O)[C@@H](C)O)C(C)C)C(C)C` [멜리틴, reference compound], for which the MIC against Aspergillus flavus was determined as 2.5 µM (≈ 7.12 µg/mL); against Aspergillus fumigatus, 2.5 µM (≈ 7.12 µg/mL); with Aspergillus parasticus it was 5 µM (≈ 14.2 µg/mL); in data set [1], 2.5 µM (≈ 7.12 µg/mL); in [2], 5 µM (≈ 14.2 µg/mL); against Candida parapsilosis, 5 µM (≈ 14.2 µg/mL). Moreover, the MIC came to 1.25 µM (≈ 3.56 µg/mL) in the data set with Malassezia furfur, 2.5 µM (≈ 7.12 µg/mL) against Trichosporon beigelii and 5 µM (≈ 14.2 µg/mL) in the data set with Trichophyton rubrum. Moreover, in the data set with Candida albicans [3], the “Mode of antifungal action, cidal or static (in words)” value is on record as “효과적으로 사멸(cidal)”. Also, the “% human erythrocyte hemolysis” value with Human erythrocytes (peptide 3.13 μM) came to 98%; with Human erythrocytes (peptide 6.25 μM), 98%; in the data set on Human erythrocytes (peptide 12.5 μM), 100%; in the data set on Human erythrocytes (peptide 25 μM), 100%; in the data set with Human erythrocytes (peptide 50 μM), 100%; with Human erythrocytes (peptide 100 μM), 100%. Also, the “Cytotoxicity to human erythrocytes (in words)” value in the data set with Human erythrocytes was “낮은 농도에서도 세포 독성이 매우 높게 나타냄”.
For “VTCDVLSFEAKGIAVNHSACALHCIALRKKGGSCQNGVCVCRN (cysteines drawn unpaired) [코프리신]”, the minimal inhibitory concentration (MIC) against Aspergillus flavus is 10 µM; against Aspergillus fumigatus it was 5 µM; with Aspergillus parasticus it was 10 µM; in [1] it was 5 to 10 µM; in data set [2], 10 µM; in the data set with Candida parapsilosis it was 10 µM. Besides, the values for the MIC against Malassezia furfur, in the data set with Trichosporon beigelii and against Trichophyton rubrum were 5 µM, 10 µM and 20 µM, respectively. Moreover, the “Effect on hyphae of Candida albicans (in words)” value with Candida albicans [4] is listed as “hyphae를 효과적으로 aggregation시킴”. The “Mode of antifungal action, cidal or static (in words)” value with Candida albicans [3] is reported as “효과적으로 사멸(cidal)”. For the same compound, the “% human erythrocyte hemolysis” value in the data set on Human erythrocytes (peptide 3.13 μM), in the data set with Human erythrocytes (peptide 6.25 μM), in the data set with Human erythrocytes (peptide 12.5 μM), with Human erythrocytes (peptide 25 μM), in the data set on Human erythrocytes (peptide 50 μM) and in the data set with Human erythrocytes (peptide 100 μM) was 0% in each case. Besides, the “Cytotoxicity to human erythrocytes (in words)” value in the data set with Human erythrocytes is given as “고농도에서도 전혀 세포 독성을 나타내지 않음”.
